Tests used:
Format in all cases: cell-based
[1] = tested on: Human d7 Cultured Dendritic Cells; experiment: Flow cytometry phenotype analysis of human d7 cultured dendritic cells after 24 h stimulation; conditions: for HLA-DR MFI: 7 day DCs, 24 h stimulation
[2] = tested on: cultured human DCs + autologous T cells
[3] = tested on: murine bone marrow derived DCs + D011.10 T cells; experiment: APC function of ova-pulsed, lipid A potentiated murine DCs co-cultured with D011.10 T cells (cytokine ELISA)
Source text: These antigen pulsed, lipid A potentiated cells were then washed thoroughly and titered against ova-specific T cell effector cells in vitro at an APC: T cell ratio titration of 1:1 out to as high as 1:512. The effector T cells in this in vitro assay were the antigen naive, but antigen (ova) specific, MHC restricted I-A^d splenic T cells from transgenic D011.10 mice.
D011.10 TCR-transgenic mice were used in these experiments as donors of antigen specific naive T cells. In their germline DNA these mice contain rearranged TCR-Vα and -Vβ genes that encode a T cell receptor (TCR) specific for the ovalbumin peptide 323-339 bound to IA^d (Balb/c) Class II MHC molecules. The transgenic ova peptide specific TCR can be detected with the KJ1-26 monoclonal antibody (mAb) that binds only to this particular TCR heterodimer. These cells provide a ready source of “normal” antigen (ova)-specific effector T cells. Effective antigen-mediated APC stimulation of those T cells is generally measured by ELISA quantitation of IL-2 or IFN-γ in the culture supernatants of DC+D011.10 T cells after 24-48 hours of incubation.
In one experiment, murine bone marrow derived DCs (6 day cultures) were pulsed with ova (50 μg/ml-5×10^5 cells/ml) and then potentiated overnight with LPS(R595), MPL® immunostimulant-S, RC-527, RC-529 or RC-544 prior to being cultured together with naive D011.10 effector T cells (FIGS. 1-7). The APC function of these DCs as measured by their ability to stimulate IL-2, IFN-γ IL-12 (p70) and IL-12 (p40) secretion in the DC+D011.10 co-culture systems was analyzed. All of the data shown in FIGS. 1-7 was developed from DCs maintained in lipid A induction cultures for either 15 or 38 hours prior to use in the T cell assay.

[4] = tested on: 6-7 day cultured human dendritic cells; experiment: ELISA of cytokines (IL-12 p40, IL-12 p70, TNF-α) in 22 h induction supernatants of cultured human dendritic cells; conditions: for IL-12 p40 / IL-12 p70 / TNF-α: 22 Hrs
Source text: Recent articles have described how human dendritic cells can be derived in vitro from CD14 positive monocyte precursors in peripheral blood. A “buffy coat” preparation can now be commonly obtained from a unit of normal human peripheral blood from a blood bank on request. The leukocyte fraction was harvested from this buffy coat preparation using standard ficoll centrifugation techniques. Subsequently, the leukocyte fraction was labeled with anti-CD 14 antibody coupled to magnetic microbeads. This preparation was then passed over a magnet (Miltanyi Biotech) and CD14 positive monocytes were collected. These CD14 positive monocyte precursors were then cultured for 5-7 days in vitro (5×10^5 cells/ml) with GM-CSF (20 ng/ml) for the duration of the culture. […] After the 24 hour in vitro stimulation culture, cells were washed twice and stained with a panel of monoclonal antibodies specific for different cell surface activation and co-receptor molecules found on mature, activated DCs.
Supernatants from DCs stimulated with LPS, MPL® immunostimulant-S, RC-527, RC-529, and RC-544 were collected and tested by ELISA analysis for cytokines.

[5] = Exp. 091698, 24 h, LPS 10 ng/ml, others 100 ng/ml
[6] = Exp. 092398, 24 h, LPS 10 ng/ml, others 100 ng/ml
[7] = Exp. 093098, 24 h, LPS 10 ng/ml, others 100 ng/ml
[8] = Exp. # 092398, Day 7, LPS 10 ng/ml, others 100 ng/ml
[9] = Exp. # 093098, LPS 10 ng/ml, others 100 ng/ml

CCCCCCCCCCCC(=O)OC(CCCCCCCCCCC)CC(=O)NC(CO)COC1OC(CO)C(OP(=O)(O)O)C(OC(=O)CC(CCCCCCCCCCC)OC(=O)CCCCCCCCCCC)C1NC(=O)CC(CCCCCCCCCCC)OC(=O)CCCCCCCCCCC (centres unmarked) [RC-544]
CD 1a % positive cells [1, 5]: 11.6%
CD 1a MFI [1, 5]: 7.38
CD 4 % positive cells [1, 5]: 70.6%
CD 4 MFI [1, 5]: 2.17
CD 14 % positive cells [1, 5]: 7.6%
CD 35 % positive cells [1, 5]: 52.5%
CD 35 MFI [1, 5]: 2.85
CD 40 MFI [1, 5]: 31.8
CD 44 MFI [1, 5]: 242
CD 54 MFI [1, 5]: 26.1
CD 62 L % positive cells [1, 5]: 11.6%
CD 69 % positive cells [1, 5]: 10.8%
CD 80 % positive cells [1, 5]: 99.2%
CD 80 MFI [1, 5]: 5.99
CD 83 % positive cells [1, 5]: 94.3%
CD 83 MFI [1, 5]: 2.72
CD 86 % positive cells [1, 5]: 99.7%
CD 86 MFI [1, 5]: 15.3
CD 95 % positive cells [1, 5]: 86.0%
CD 95 MFI [1, 5]: 1.31
HLA-DR MFI ([1]; Exp. 091698, LPS 10 ng/ml, others 100 ng/ml): 544-S 60.8
CD 1a % positive cells [1, 6]: 75.6%
CD 1a MFI [1, 6]: 4.44
CD 4 % positive cells [1, 6]: 75.7%
CD 4 MFI [1, 6]: 2.80
CD 14 % positive cells [1, 6]: 5.0%
CD 35 % positive cells [1, 6]: 59.1%
CD 35 MFI [1, 6]: 2.98
CD 40 MFI [1, 6]: 33.7
CD 54 MFI [1, 6]: 32.7
CD 62 L % positive cells [1, 6]: 7.1%
CD 69 % positive cells [1, 6]: 10.1%
CD 80 % positive cells [1, 6]: 99.1%
CD 80 MFI [1, 6]: 7.56
CD 83 % positive cells [1, 6]: 97.1%
CD 83 MFI [1, 6]: 3.52
CD 86 % positive cells [1, 6]: 99.9%
CD 86 MFI [1, 6]: 26.4
CD 95 % positive cells [1, 6]: 90.6%
CD 95 MFI [1, 6]: 1.40
αC5aR + GAR Alexa % positive cells [1, 6]: 45.9%
CD 44 MFI ([1]; Exp. 092398, 24 h, LPS 10 ng/ml, others 100 ng/ml, values printed with a trailing +): 426+
GAR-Alexa % positive cells ([1]; Exp. 092398, 24 h, secondary reagent staining, LPS 10 ng/ml, others 100 ng/ml): 3.9%
HLA-DR MFI ([1]; Exp. 092398, LPS 10 ng/ml, others 100 ng/ml): 155.2
CCR 6 % positive cells [1, 7]: 5.8%
CD 1a % positive cells [1, 7]: 78.1%
CD 1a MFI [1, 7]: 6.06
CD 3 % positive cells [1, 7]: 26.8%
CD 3 MFI [1, 7]: 3.86
CD 4 % positive cells [1, 7]: 79.4%
CD 4 MFI [1, 7]: 3.11
CD 11c % positive cells [1, 7]: 91.0%
CD 11c MFI [1, 7]: 6.23
CD 14 % positive cells [1, 7]: 4.1%
CD 40 MFI [1, 7]: 30.4
CD 54 MFI [1, 7]: 36.8
CD 62 L % positive cells [1, 7]: 4.0%
CD 80 % positive cells [1, 7]: 99.0%
CD 80 MFI [1, 7]: 10.9
CD 83 % positive cells [1, 7]: 92.5%
CD 83 MFI [1, 7]: 3.43
CD 86 % positive cells [1, 7]: 99.8%
CD 86 MFI [1, 7]: 26.3
CD 123 % positive cells [1, 7]: 48.0%
CD 123 MFI [1, 7]: 1.85
αC5aR + Alexa 488 % positive cells [1, 7]: 43.3%
αC5aR + Alexa 488 MFI [1, 7]: 9.41
HLA-DR MFI ([1]; Exp. 093098, LPS 10 ng/ml, others 100 ng/ml): 134.3
stimulating the expression of HLA-DR and co-stimulatory molecules (in words) ([1]; RC-529 compared with RC-544, three experiments): very comparable effects
CD40 and CD83 expression (in words) ([1]; RC-544 compared with RC-529): slightly higher levels of CD40 and CD83 expression than did RC-529
T cell proliferation / DC activation, CPM 3H-thymidine response (in words) [2]: highest levels of DC activation compared to MPL® immunostimulant
IL-2 secretion (in words) ([3]; DCs prestimulated 15 hours, all T cell:APC ratios, FIG. 1): comparable in their ability to stimulate IL-2 secretion
IL-12 (p70) in DC+D011.10 co-cultures (in words) ([3]; FIG. 5): overall weaker in their effect than LPS and RC-527
IL-12 (p70) at T cell:APC ratio 16:1 (in words) ([3]; FIG. 6): substantially higher stimulation effect than that induced by RC-529
release of IL-12 (p40) homodimer in DC+D011.10 co-cultures (in words) ([3]; FIG. 7): weaker in their effect than LPS and RC-527
IL-12 p40 ([4]; Exp. # 091698, LPS 10 ng/ml, others 100 ng/ml): 42,500 pg/mL/5 × 10^5 Cells
IL-12 p70 ([4]; Exp. # 092398 (second line, Day7), LPS 10 ng/ml, others 100 ng/ml): 175.2 pg/ml/5 × 10^5 Cells
IL-12 p40 [4, 8]: 80,500 pg/mL/5 × 10^5 Cells
TNF-α [4, 8]: 5.650 pg/mL/5 × 10^5 Cells
IL-12 p70 ([4]; Exp. # 092398 as printed (first line of section), LPS 10 ng/ml, others 100 ng/ml): 8.8 pg/ml/5 × 10^5 Cells
IL-12 p70 ([4]; Exp. # 092398 as printed (third line of section), LPS 10 ng/ml, others 100 ng/ml): 55.7 pg/ml/5 × 10^5 Cells
IL-12 p40 [4, 9]: 62,000 pg/mL/5 × 10^5 Cells
TNF-α [4, 9]: 880 pg/mL/5 × 10^5 Cells
IL-12 (p40) expression (in words) ([4]; all three experiments, LPS 10 ng/ml, others 100 ng/ml): also stimulated IL-12 (p40) responses
IL-12 (p70) (in words) ([4]; the one donor in which LPS and MPL-S gave a significant amount): high levels of IL-12 (p70)
TNF-α secretion (in words) ([4]; three donors): moderately lower than the effect due to RC-527
